According to patent US20220289686A1, “COMPOSITIONS OF NRF2 INHIBITING AGENTS AND METHODS OF USE THEREOF” (Washington University, priority 2021, published 2022):
Read-outs that look alike come from different tables or passages of the source.

Columns and labels:
DHFR protein = target: T1, DHFR protein (Homo sapiens, UniProt P00374); assay: Western blot for DHFR protein stabilization; format: cell-based; conditions: western blot at the doses used
T1 construct: endogenous in cells; host or cells: KYSE70, HEK293T, H1299, A549, OE21, PC-9
T1 sequence (P00374 1-187): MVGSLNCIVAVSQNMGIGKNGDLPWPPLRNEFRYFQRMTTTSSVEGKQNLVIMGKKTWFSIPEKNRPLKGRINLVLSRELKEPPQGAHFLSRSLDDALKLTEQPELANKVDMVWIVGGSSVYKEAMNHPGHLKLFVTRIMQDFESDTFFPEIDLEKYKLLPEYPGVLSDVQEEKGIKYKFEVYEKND
Experimental: (§1) Western Blots: KYSE70, HEK293T cells were plated and 24 hours later treated with compounds (see figure legends for details). Either at 24 or 48 hours later, cells were scrapped in RIPA buffer (0.2% deoxycholate, 0.1% SDS, 1% NP40, 150 mM NaCl, 50 mM Tris pH 7.4, 2 mM EDTA) supplemented with protease and phosphatase inhibitors, cleared at 14000×g for 15 minutes at 4° C., and supernatants were quantified by BCA assay (Pierce, 23225). Protein samples (20 μg) were prepared with 1×LDS buffer with 100 mM DTT, ran on NuPAGE 4-12% Bis-tris gels, and transferred onto a […] nitrocellulose membrane (Thermo, 88018). All blots were blocked in 5% milk in TBST for 30 minutes. After incubation of the primary antibody overnight at 4° C. and washed three times with 1×TBST, blots were incubated with LI-COR secondary antibodies for 1-2 hours, washed in 1×TBST thrice, and then imaged via a LI-COR Odyssey instrument (Li-COR, Lincoln, Nebr.).

[1] = system: NRF2 activity in H1299-NQO1-YFP cells; assay: NRF2 activity reporter IC50 in H1299-NQO1-YFP cells vs NRF2 pathway activators (IncuCyte, YFP/mCherry); format: cell-based; conditions: for suppression of NRF2 activity (in words): IC50 experiments at the doses tested
Experimental: Readings were taken every 2 hours for at least 24 hours. […] Readings were also taken every 2 hours for 96 hours in and IncuCyte S3.
(§2) YFP total intensity (correlating to NRF2 activity) was normalized to NLS-mCherry (cell number) total intensity to give a ratio (YFP/mCherry). Ratios at one time point at least 24 hours post compounds were added were used. These numbers were then plotted in Graphpad Prism to calculate IC50s. […] From three biological replicates, percent confluence was used for proliferation assays to calculate IC50s, calculations performed using Graphpad Prism.

AXIN2 and CK1γ1 mRNA = assay: qRT-PCR of AXIN2 and CK1γ1 mRNA (not NRF2 target genes) in KYSE70 cells; format: cell-based; conditions: KYSE70, 48 hours; 1 μM 115, 0.1 μM MTX, 0.1 μM PEM
Excerpt: Single experiment shown. AXIN2 and CK1γ1 were done in same experiment, but separated for discussion. Error bars are SD and * represents p-value <0.05.
(§3) qRT-PCR: Total RNA was extracted using PureLink RNA kit following the manufacturers protocol. Primers for qPCR were designed using the National Center for Biotechnology Information's (NCBI) Primer-BLAST platform. For primer sequences, see Table 2. RNA was quantified using a Nanodrop One (Thermo, Waltham, Mass.), and the reverse transcription reaction was performed using 2 μg of RNA with the iSCRIPT Clear kit with DNAse (Biorad, 170-8891). For the qRT-PCR, PowerUP SYBR Green (Thermo, A25741) was used, and data were analyzed on an AB QuantStudio 6 Flex Real Time PCR machine (Applied Biosystems, Foster City, Calif.). ΔCT values were normalized to housekeeping gene RPL13a and then normalized to DMSO for final ΔΔCT value.

[2] = system: NRF2 mRNA and NRF2 target gene mRNA; assay: RT-qPCR of NRF2 mRNA and NRF2 downstream targets in KYSE70 cells; format: cell-based; conditions: 24 or 48 hours, PYR 10 μM, analogs 1 μM, MTX and PEM 0.1 μM
Experimental: as §3

NRF2 protein [3] = assay: Western blot analysis of NRF2 protein abundance and downstream targets in cell lines; format: cell-based; conditions: for NRF2 protein abundance: 24-48 hours, PYR 10 μM, analogs 1 μM (104 in HEK293T 10 μM), MTX and PEM 0.1 μM, CG 10 μM
Experimental: as §1

[4] = system: mutant KEAP1 activation of NRF2 pathway in H1299-NQO1-YFP cells; assay: H1299-NQO1-YFP reporter cells transfected with mutant KEAP1; format: cell-based; conditions: 10 μM PYR, mutant KEAP1 overexpressed
Experimental: Data is of 3 independent experiments, error bars are SD.
H1299-NQO1-YFP cells were transfected with WT, R320Q, R470C, or V115F FLAG-KEAP1 constructs using Lipofectamine 2000. […] Calculations are detailed below. This was performed in biological triplicate and error bars are SD.

KYSE70 cells [5] = assay: Proliferation IC50 (percent confluence, IncuCyte) in KYSE70 cells; format: cell-based; conditions: Homo sapiens, read-out: proliferation IC50
Experimental: as §2, with “IncuCyte and IC50 calculations: […] […] Readings were taken every 2 hours for at least 24 hours. […] Readings were also taken every 2 hours for 96 hours in and IncuCyte S3. YFP total” for “YFP total”

NRF2 protein [6] = assay: Western blot analysis of NRF2 protein abundance and downstream targets in cell lines; format: cell-based; conditions: for NRF2 protein levels with MLN induced stabilization: H1299, 10 μM PYR or 1 μM 115 with 0.5 μM MLN, 24 hours
H1299 cells = assay: Proliferation IC50 (percent confluence, IncuCyte) in H1299 cells; format: cell-based; conditions: Homo sapiens, read-out: proliferation IC50
Experimental: as §2, with “IncuCyte and IC50 calculations: […] […] Readings were taken every 2 hours for at least 24 hours. […] Readings were also taken every 2 hours for 96 hours in and IncuCyte S3. YFP total” for “YFP total”

[7] = Mouse study on analog 115: pharmacokinetic profile and clinical observations; conditions: for concentration at 7 h: female, CD-1, mouse, plasma
Experimental: Two tests were conducted, on for a single oral dose of 10 mg/kg and for an intravenous 2 mg/kg dose in female CD-1 mice (n=3 for each group).
Mouse study with Analog 115: All mouse work was performed by Paraza Pharma, Inc. All pertinent information and methods are listed in FIG. 17.

KYSE70 cells [8] = assay: Metabolomics analysis of KYSE70 cells; format: cell-based; conditions: KYSE70, 48 hours; 10 μM PYR, 1 μM 115, 0.1 μM MTX
Experimental: After 48 hours, 1 ml of media was aliquoted into a clean Eppendorf and kept on ice, and the rest of the media was removed from these dishes. The cells were then washed in water twice and then scrapped in ice cold methanol.

human DHFR (hDHFR) = target: T2, human DHFR (hDHFR) (Homo sapiens, UniProt P00374); assay: Human DHFR enzymatic assay; format: biochemical; conditions: in vitro enzymatic assay, hDHFR 3E-3 Units; read-out: hDHFR3E-3 Units IC50 μM + SEM
T2 construct: purchased
T2 sequence (P00374 1-187): T1 sequence (P00374 1-187)

[9] = Table 1 and text, average over activators CDDO, PRL295, SULF, H1299-NQO1-YFP cells, read-out: Avg IC50
[10] = Table 6 NRF2 inhibitors, read-out: Avg IC50
[11] = Table 3, activator CDDO 100 nM, H1299-NQO1-YFP cells, read-out: CDDO 100 nM IC50 μM ± SEM
[12] = Table 3, activator SULF 2 μM, H1299-NQO1-YFP cells, read-out: SULF 2 μM IC50 μM ± SEM
[13] = Table 3, average over activators, H1299-NQO1-YFP cells, read-out: Avg IC50
[14] = read-out: PRL295 5 μM IC50 μM ± SEM, Table 3, activator PRL295 5 μM, H1299-NQO1-YFP cells
[15] = read-out: PRL295 5 μM IC50 AM ± SEM, Table 1, activator PRL295 5 μM, H1299-NQO1-YFP cells

Row | SMILES | DHFR protein stabilization (DHFR protein) | suppression of NRF2 activity (in words) [1] | IC50 [1, 9] [µM] | IC50 [1, 10] [µM] | AXIN2 and CK1γ1 mRNA (AXIN2 and CK1γ1 mRNA) | IC50 [1, 11] [µM] | IC50 [1, 12] [µM] | IC50 [1, 13] [µM] | IC50 [1, 14] [µM] | NRF2 mRNA and NRF2 target gene mRNA [2] | NRF2 protein abundance (NRF2 protein [3]; western blot) | IC50 [1, 15] [µM] | IC50 (KYSE70 cells [5]; KYSE-70, 96 h) [nM] | NRF2 protein levels with MLN induced stabilization (NRF2 protein [6]) | other results
1 | CCc1nc(N)ncc1-c1ccc(Cl)cc1 [WCDD101, 5-(4-chlorophenyl)-4-ethylpyrimidin-2-amine] | DHFR was not stabilized | did not have any effect on NRF2 activity | > 20 | > 20 | – | – | – | – | – | – | – | – | – | – | –
2 | Nc1nc2[nH]cc(CCc3ccc(C(=O)N[C@@H](CCC(=O)O)C(=O)O)cc3)c2c(=O)[nH]1 [PEM, reference compound] | – | only partial suppression of NRF2 activity | – | – | decreased AXIN2 and CK1γ1 mRNA | 0.334 ± 0.03 | 0.382 ± 0.0374 | 0.276 | 0.112 ± 0.0068 | did not | did not | – | – | – | –
3 | CCc1nc(N)nc(N)c1-c1ccc(Cl)cc1 [PYR, 5-(4-chlorophenyl)-6-ethylpyrimidine-2,4-diamine, reference compound] | DHFR protein was stabilized | – | – | – | – | – | – | – | 0.873 ± 0.032 | abrogated NRF2 mRNA and NRF2 target gene mRNA decrease | decreases NRF2 protein abundance | 0.873 ± 0.032 | 1240 | Neither PYR nor 115 can decrease NRF2 protein levels | IC50 ([1]; read-out: Avg IC50 μM, Table 1 and text, average over activators CDDO, PRL295, SULF, H1299-NQO1-YFP cells): 1.2 µM; IC50 ([1]; read-out: Avg IC50 μM, Table 3, average over activators, H1299-NQO1-YFP cells): 1.23 µM; IC50 ([1]; read-out: Avg IC50 μM, Table 6 NRF2 inhibitors): 1.23 µM; IC50 ([1]; read-out: CDDO 0.1 μM IC50 μM ± SEM, Table 1, activator CDDO 0.1 μM, H1299-NQO1-YFP cells): 1.25 ± 0.024 µM; IC50 ([1]; read-out: CDDO 100 nM IC50 μM ± SEM, Table 3, activator CDDO 100 nM, H1299-NQO1-YFP cells): 1.25 ± 0.024 µM; IC50 ([1]; read-out: SULF 2 μM IC50 μM ± SEM, Table 1, activator SULF 2 μM, H1299-NQO1-YFP cells): 1.59 ± 0.0448 µM; IC50 ([1]; read-out: SULF 2 μM IC50 μM ± SEM, Table 3, activator SULF 2 μM, H1299-NQO1-YFP cells): 1.59 ± 0.0448 µM; mutant KEAP1 activation of the NRF2 pathway [4]: repressed mutant KEAP1 activation of the pathway; NRF2 protein on co-treatment with Bortezomib (NRF2 protein [3]; BORT 0.04 μM co-treatment, HEK293T, H1299): prevented PYR from decreasing NRF2; expression of downstream NRF2 target proteins (NRF2 protein [3]; western blot, PYR treatment): decreased expression of downstream NRF2 target proteins; IC50 (H1299 cells; NCI-H1299, 96 h): 3830 nM
4 | CCc1nc(N)nc(N)c1-c1cccc(C(F)(F)F)c1 [WCDD115, 6-ethyl-5-(3-(trifluoromethyl)phenyl)pyrimidine-2,4-diamine] | – | – | 0.05 | 0.057 | some minimal effect on AXIN2 | – | – | – | – | – | decrease NRF2 protein abundance | 0.06 ± 0.001 | – | Neither PYR nor 115 can decrease NRF2 protein levels | concentration at 7 h ([7]; iv, 2 mg/kg): 76.4 ng/mL; concentration at 7 h ([7]; po, 10 mg/kg): ~450 ng/mL; plasma level at 24 hours post dosing ([7]; oral 10 mg/kg or IV 2 mg/kg, 24 hours post dosing): unquantifiable; reduction potential in the form of glutathione ratios (KYSE70 cells [8]): decreased; IC50 (human DHFR (hDHFR)): 0.144 ± 0.0224 µM; IC50 ([1]; Table 1, activator CDDO 0.1 μM, H1299-NQO1-YFP cells, read-out: CDDO 0.1 μM IC50 μM ± SEM): 0.052 ± 0.0001 µM; IC50 ([1]; Table 1, activator SULF 2 μM, H1299-NQO1-YFP cells, read-out: SULF 2 μM IC50 μM ± SEM): 0.057 ± 0.003 µM; potency in NRF2 suppression compared to PYR ([1]; relative to PYR): 10 fold; IC50 ([1]; unit inferred, read-out: IC50): 0.05 µM; IC50 (KYSE70 cells [5]; KYSE-70, KYSE70, 96-hour time point, one or two experiments): 31.9 nM; IC50 (H1299 cells; NCI-H1299, H1299, 96-hour time point, initial experiment): 145 nM
5 | Nc1nc(=O)c2c([nH]1)NCC(CNc1ccc(C(=O)N[C@@H](CCC(=O)O)C(=O)O)cc1)N2C=O (mixture of isomers) [FA, Folinic Acid] | – | – | – | – | – | – | – | – | – | – | – | – | – | – | stabilization of NRF2 by FA alone (NRF2 protein [6]; H1299, 10 ng/ml FA, 24 hr): no stabilization of NRF2
6 | CN(Cc1cnc2nc(N)nc(N)c2n1)c1ccc(C(=O)N[C@@H](CCC(=O)O)C(=O)O)cc1 [MTX, Methotrexate, reference compound] | – | – | – | – | decreased AXIN2 and CK1γ1 mRNA | 0.0008 | 0.0358 ± 0.0031 | 0.0202 | 0.024 ± 0.0024 | decreased | decreased | – | 12.4 | – | –
